Reference: PubChem BioAssay AID2060893 (Molecular Pharmacology Branch, DTP, NCI, 2025)
pIC50: −log10 of the molar value.

Tested on: K86415-001-R-J1-PDC complex spheroids, viability
Experiment: Anticancer human tumor K86415-001-R-J1-PDC patient-derived lung adenocarcinoma cell line growth inhibition [RAS]
Details: for pIC50: curve of first compound; for viability, T/C: stronger effect = lower value
How it was run: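 Multi-cell-type spheroids: tumor cells plus HUVEC endothelial cells and mesenchymal stem cells. RAS-pathway inhibitors were combined with targeted agents, each dosed in half-log steps down from clinical Cmax, or from 10 microM when Cmax was unknown.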
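Also: spheroids exposed to agents for seven days before readout.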

## CCC(CC)c1cc(NC2CCC(N)C2)n2nccc2n1 (centres undefined) + C#Cc1c(F)ccc2cc(O)cc(-c3ncc4c(N5CC6CCC(C5)N6)nc(OCC56CCCN5CC(F)C6)nc4c3F)c12
Second compound 0.0316 µM
  pIC50: 5.74
Second compound 0.1 µM
  pIC50: 5.75
Second compound 0.316 µM
  pIC50: 5.77
Second compound 1 µM
  pIC50: 5.79
Second compound 3.16 µM
  pIC50: 5.98
Second compound 10 µM
  pIC50: > 7.50
Second compound 0.0316 µM, first compound 0.0316 µM
  viability, T/C: 108%
Second compound 0.0316 µM, first compound 0.1 µM
  viability, T/C: 126%
Second compound 0.0316 µM, first compound 0.316 µM
  viability, T/C: 109%
Second compound 0.0316 µM, first compound 1 µM
  viability, T/C: 98.1%
Second compound 0.0316 µM, first compound 3.16 µM
  viability, T/C: 3.47%
Second compound 0.0316 µM, first compound 10 µM
  viability, T/C: 3.41%
Second compound 0.1 µM, first compound 0.0316 µM
  viability, T/C: 99.1%
Second compound 0.1 µM, first compound 0.1 µM
  viability, T/C: 98.2%
Second compound 0.1 µM, first compound 0.316 µM
  viability, T/C: 109%
Second compound 0.1 µM, first compound 1 µM
  viability, T/C: 97.4%
Second compound 0.1 µM, first compound 3.16 µM
  viability, T/C: 2.92%
Second compound 0.1 µM, first compound 10 µM
  viability, T/C: 2.14%
Second compound 0.316 µM, first compound 0.0316 µM
  viability, T/C: 97.1%
Second compound 0.316 µM, first compound 0.1 µM
  viability, T/C: 103%
Second compound 0.316 µM, first compound 0.316 µM
  viability, T/C: 107%
Second compound 0.316 µM, first compound 1 µM
  viability, T/C: 91.1%
Second compound 0.316 µM, first compound 3.16 µM
  viability, T/C: 3.17%
Second compound 0.316 µM, first compound 10 µM
  viability, T/C: 3.38%
Second compound 1 µM, first compound 0.0316 µM
  viability, T/C: 74.2%
Second compound 1 µM, first compound 0.1 µM
  viability, T/C: 83.7%
Second compound 1 µM, first compound 0.316 µM
  viability, T/C: 85.7%
Second compound 1 µM, first compound 1 µM
  viability, T/C: 90.2%
Second compound 1 µM, first compound 3.16 µM
  viability, T/C: 3.62%
Second compound 1 µM, first compound 10 µM
  viability, T/C: 2.6%
Second compound 3.16 µM, first compound 0.0316 µM
  viability, T/C: 43.4%
Second compound 3.16 µM, first compound 0.1 µM
  viability, T/C: 46.1%
Second compound 3.16 µM, first compound 0.316 µM
  viability, T/C: 50.1%
Second compound 3.16 µM, first compound 1 µM
  viability, T/C: 68.2%
Second compound 3.16 µM, first compound 3.16 µM
  viability, T/C: 3.28%
Second compound 3.16 µM, first compound 10 µM
  viability, T/C: 2.71%
Second compound 10 µM, first compound 0.0316 µM
  viability, T/C: 15.4%
Second compound 10 µM, first compound 0.1 µM
  viability, T/C: 18.1%
Second compound 10 µM, first compound 0.316 µM
  viability, T/C: 24.3%
Second compound 10 µM, first compound 1 µM
  viability, T/C: 33.3%
Second compound 10 µM, first compound 3.16 µM
  viability, T/C: 2.78%
Second compound 10 µM, first compound 10 µM
  viability, T/C: 2.37%

## CC1(C)CCC(Nc2ncc(C(F)(F)F)c(-c3c[nH]c4c(P(C)(C)=O)c(C#N)ccc34)n2)CN1 (centres undefined) + C#Cc1c(F)ccc2cc(O)cc(-c3ncc4c(N5CC6CCC(C5)N6)nc(OCC56CCCN5CC(F)C6)nc4c3F)c12
Second compound 0.0316 µM
  pIC50: 6.52
Second compound 0.1 µM
  pIC50: < 6.52
Second compound 0.316 µM
  pIC50: 6.52
Second compound 1 µM
  pIC50: < 6.52
Second compound 3.16 µM
  pIC50: < 6.52
Second compound 10 µM
  pIC50: > 9.02
Second compound 0.0316 µM, first compound 0.000949 µM
  viability, T/C: 103%
Second compound 0.0316 µM, first compound 0.003 µM
  viability, T/C: 131%
Second compound 0.0316 µM, first compound 0.00949 µM
  viability, T/C: 75.3%
Second compound 0.0316 µM, first compound 0.03 µM
  viability, T/C: 59.8%
Second compound 0.0316 µM, first compound 0.0949 µM
  viability, T/C: 56.6%
Second compound 0.0316 µM, first compound 0.3 µM
  viability, T/C: 55.5%
Second compound 0.1 µM, first compound 0.000949 µM
  viability, T/C: 103%
Second compound 0.1 µM, first compound 0.003 µM
  viability, T/C: 118%
Second compound 0.1 µM, first compound 0.00949 µM
  viability, T/C: 77.3%
Second compound 0.1 µM, first compound 0.03 µM
  viability, T/C: 62%
Second compound 0.1 µM, first compound 0.0949 µM
  viability, T/C: 57.4%
Second compound 0.1 µM, first compound 0.3 µM
  viability, T/C: 61%
Second compound 0.316 µM, first compound 0.000949 µM
  viability, T/C: 101%
Second compound 0.316 µM, first compound 0.003 µM
  viability, T/C: 119%
Second compound 0.316 µM, first compound 0.00949 µM
  viability, T/C: 78.3%
Second compound 0.316 µM, first compound 0.03 µM
  viability, T/C: 60.4%
Second compound 0.316 µM, first compound 0.0949 µM
  viability, T/C: 62.8%
Second compound 0.316 µM, first compound 0.3 µM
  viability, T/C: 61.9%
Second compound 1 µM, first compound 0.000949 µM
  viability, T/C: 78.5%
Second compound 1 µM, first compound 0.003 µM
  viability, T/C: 103%
Second compound 1 µM, first compound 0.00949 µM
  viability, T/C: 76.5%
Second compound 1 µM, first compound 0.03 µM
  viability, T/C: 57.4%
Second compound 1 µM, first compound 0.0949 µM
  viability, T/C: 60.6%
Second compound 1 µM, first compound 0.3 µM
  viability, T/C: 65.5%
Second compound 3.16 µM, first compound 0.000949 µM
  viability, T/C: 39.1%
Second compound 3.16 µM, first compound 0.003 µM
  viability, T/C: 64.3%
Second compound 3.16 µM, first compound 0.00949 µM
  viability, T/C: 60.5%
Second compound 3.16 µM, first compound 0.03 µM
  viability, T/C: 49.5%
Second compound 3.16 µM, first compound 0.0949 µM
  viability, T/C: 47.9%
Second compound 3.16 µM, first compound 0.3 µM
  viability, T/C: 55.8%
Second compound 10 µM, first compound 0.000949 µM
  viability, T/C: 19%
Second compound 10 µM, first compound 0.003 µM
  viability, T/C: 22%
Second compound 10 µM, first compound 0.00949 µM
  viability, T/C: 26.7%
Second compound 10 µM, first compound 0.03 µM
  viability, T/C: 29.1%
Second compound 10 µM, first compound 0.0949 µM
  viability, T/C: 33.6%
Second compound 10 µM, first compound 0.3 µM
  viability, T/C: 34.3%
